Data on 28 compounds can be found in patent US9200008B2 (ASKA PHARMACEUTICAL CO., LTD., priority 2010, dated 2015).

This assay concerns Human prostate cancer cell lines (PC-3 cells). Description: Measurement of cell death-inducing activity (Test Example 1). Type of assay: cell-based. To be noted: PC-3, 48 h, 48 hours after addition, tested at 10, 1, 0.1, 0.025 and 0.00625 μmol/L, qualitative evaluation of 10 fields, read-out: Concentration showing the cell death-inducing activity (cell death-inducing rate not less than 40%). Put shortly: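 Compound treatment lasted 48 h at 10 to 0.00625 μmol/L (five levels, DMSO as control) on PC-3 cells pre-cultured 48 h at 37 °C, 5% CO2 after seeding at 1×10^5 cells/well. A cell death-inducing rate of 40% or more counted as active.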
For the compound `CCn1cc2cc(NC(=O)OCc3sc(-c4ccc(Cl)cc4C)nc3C)ccc2n1` [Example 13-55], the minimal effective concentration was 0.025 µM.

For the compound `CCn1cc2cc(NC(=O)OCc3sc(-c4ccc(F)cc4Cl)nc3C)ccc2n1` [Example 13-56], the minimal effective concentration came out at 0.1 µM.

Consider `CCn1cnc2cc(NC(=O)OCc3sc(-c4ccco4)nc3C)ccc21` [Example 13-57], for which the minimal effective concentration stood at 1 µM.

On to `Cc1nc(-c2sccc2Cl)sc1COC(=O)Nc1ccc2c(c1)nc1n2CCOC1` [Example 13-61], for which the minimal effective concentration was 10 µM.

On to `COc1ccccc1-c1ncc(COC(=O)Nc2ccc3c(c2)ncn3C)s1` [Example 13-66], for which the minimal effective concentration is 10 µM.

For `CCc1nc(-c2ccc(Cl)cc2OC)sc1COC(=O)Nc1ccc2c(c1)ncn2C` [Example 13-67], the minimal effective concentration came out at 0.1 µM.

Consider `CCCc1nc(-c2ccc(Cl)cc2OC)sc1COC(=O)Nc1ccc2c(c1)ncn2C` [Example 13-68], for which the minimal effective concentration stood at 1 µM.

`COc1ccc(NC(=O)OCc2cc(-c3ccc(F)cc3OC)nn2C)cc1` [Example 13-70]: the minimal effective concentration turned out to be 10 µM.

As to `COc1ccc(NC(=O)OCc2cc(-c3ccc(Cl)cc3OC)nn2C)cc1F` [Example 13-71], the minimal effective concentration was 1 µM.

For the compound `COc1ccc(NC(=O)OCc2cc(-c3ccc(C)cc3OC)nn2C)cc1F` [Example 13-72], the minimal effective concentration turned out to be 1 µM.

For the compound `COc1cc(Cl)ccc1-c1cc(COC(=O)Nc2ccc3c(c2)CCO3)n(C)n1` [Example 13-73], the minimal effective concentration is 10 µM.

Take `COc1ccccc1-c1cc(COC(=O)Nc2ccc3c(c2)ncn3C)n(C)n1` [Example 13-76]: the minimal effective concentration is 0.025 µM.

As for `CCn1nc(-c2ccccc2OC)cc1COC(=O)Nc1ccc2c(c1)ncn2C` [Example 13-77], the minimal effective concentration was 0.1 µM.

Take `CCn1cnc2cc(NC(=O)OCc3cc(-c4ccccc4OC)nn3C)ccc21` [Example 13-78]: the minimal effective concentration is 0.1 µM.

For the compound `COc1cc(F)ccc1-c1cc(COC(=O)Nc2ccc3c(c2)ncn3C)n(C)n1` [Example 13-80], the minimal effective concentration was 0.00625 µM.

In the case of `CCn1nc(-c2ccc(F)cc2OC)cc1COC(=O)Nc1ccc2c(c1)ncn2C` [Example 13-81], the minimal effective concentration was 0.025 µM.

Consider `CCn1cnc2cc(NC(=O)OCc3cc(-c4ccc(F)cc4OC)nn3C)ccc21` [Example 13-82], for which the minimal effective concentration turned out to be 0.025 µM.

`CCn1nc(-c2ccc(F)cc2OC)cc1COC(=O)Nc1ccc2c(c1)ncn2CC` [Example 13-83]: the minimal effective concentration was 0.025 µM.

Regarding `COc1cc(Cl)ccc1-c1cc(COC(=O)Nc2ccc3c(c2)ncn3C)n(C)n1` [Example 13-84], the minimal effective concentration came to 0.00625 µM.

`CCn1nc(-c2ccc(Cl)cc2OC)cc1COC(=O)Nc1ccc2c(c1)ncn2C` [Example 13-85]: the minimal effective concentration is 0.00625 µM.

Regarding `CCn1cnc2cc(NC(=O)OCc3cc(-c4ccc(Cl)cc4OC)nn3C)ccc21` [Example 13-86], the minimal effective concentration came out at 0.00625 µM.

With `CCn1nc(-c2ccc(Cl)cc2OC)cc1COC(=O)Nc1ccc2c(c1)ncn2CC` [Example 13-87], the minimal effective concentration amounted to 0.025 µM.

`COc1cc(C)ccc1-c1cc(COC(=O)Nc2ccc3c(c2)ncn3C)n(C)n1` [Example 13-88]: the minimal effective concentration came out at 0.00625 µM.

On to `CCn1nc(-c2ccc(C)cc2OC)cc1COC(=O)Nc1ccc2c(c1)ncn2C` [Example 13-89], for which the minimal effective concentration amounted to 0.00625 µM.

In the case of `CCn1nc(-c2ccc(C)cc2OC)cc1COC(=O)Nc1ccc2c(c1)ncn2CC` [Example 13-91], the minimal effective concentration amounted to 0.1 µM.

Consider `CCn1cnc2cc(NC(=O)OCc3cc(-c4ccc(C)cc4C)nn3C)ccc21` [Example 13-92], for which the minimal effective concentration stood at 0.00625 µM.

Turning to `COCc1nc2cc(NC(=O)OCc3cc(-c4ccc(C)cc4OC)nn3C)ccc2n1C` [Example 13-93], the minimal effective concentration was 1 µM.

As for `COCCn1cnc2cc(NC(=O)OCc3cc(-c4ccc(Cl)cc4OC)nn3C)ccc21` [Example 13-94], the minimal effective concentration came to 1 µM.
